The source made the active and inactive calls. The rule behind the calls is not given here.
System: CCRIS mutagenicity, Ames/micronucleus/aberration tests
Test: CCRIS mutagenicity studies
Text: The CCRIS database contains chemical records with carcinogenicity, mutagenicity, tumor promotion, and tumor inhibition test results. It was developed by the National Cancer Institute (NCI). Data are derived from studies cited in primary journals, current awareness tools, NCI reports, and other sources. Test results have been reviewed by experts in carcinogenesis and mutagenesis.
CCRIS provides historical information from the years 1985 - 2011. It is no longer updated.
This is an archive assay for CCRIS mutagenicity studies.

[1] = Test System: AMES SALMONELLA TYPHIMURIUM, Strain/Indicator: TA98, Metabolic Activation: NONE, Method: STANDARD PLATE
[2] = Test System: AMES SALMONELLA TYPHIMURIUM, Strain/Indicator: TA98, Metabolic Activation: NONE, Method: PREINCUBATION
[3] = Test System: AMES SALMONELLA TYPHIMURIUM, Strain/Indicator: TA100, Metabolic Activation: NONE, Method: PREINCUBATION
[4] = Test System: AMES SALMONELLA TYPHIMURIUM, Strain/Indicator: TA100, Metabolic Activation: NONE, Method: STANDARD PLATE
[5] = Test System: AMES SALMONELLA TYPHIMURIUM, Strain/Indicator: TA100, Metabolic Activation: RAT, LIVER, S-9, AROCLOR 1254, Method: STANDARD PLATE
[6] = Test System: AMES SALMONELLA TYPHIMURIUM, Strain/Indicator: TA1535, Metabolic Activation: NONE, Method: STANDARD PLATE
[7] = Test System: AMES SALMONELLA TYPHIMURIUM, Strain/Indicator: TA1535, Metabolic Activation: RAT, LIVER, S-9, AROCLOR 1254, Method: STANDARD PLATE

Question: For `Nc1ccc2c(c1)C(=O)/C(=N/Nc1ccc(-c3ccc(N/N=C4\C=CC(=O)C(C(=O)O)=C4)cc3)cc1)C(S(=O)(=O)O)=C2`, which mutagenic call (Test System: AMES SALMONELLA TYPHIMURIUM, Strain/Indicator: TA98, Metabolic Activation: HAMSTER, LIVER, S-9, Method: PREINCUBATION (PRIVAL METHOD)) is on record?
Answer: active; positive

Question: What does the source list for `CC(C)COS(=O)(=O)c1ccccc1`?
Answer: mutagenic call [1]: active; positive; mutagenic call (Test System: AMES SALMONELLA TYPHIMURIUM, Strain/Indicator: TA98, Metabolic Activation: RAT, LIVER, S-9, Method: STANDARD PLATE): active; positive; mutagenic call (Test System: AMES SALMONELLA TYPHIMURIUM, Strain/Indicator: TA100, Metabolic Activation: RAT, LIVER, S-9, Method: STANDARD PLATE): active; positive

Question: For `O=C(O)CC[N+](=O)[O-]`, which mutagenic call (Test System: AMES SALMONELLA TYPHIMURIUM, Strain/Indicator: TA98, Metabolic Activation: HAMSTER, LIVER, S-9, AROCLOR 1254 (30%), Method: PREINCUBATION) is on record?
Answer: inactive; negative

Question: What about the mutagenic call [2] of the same compound?
Answer: inactive; negative

Question: And the mutagenic call (Test System: AMES SALMONELLA TYPHIMURIUM, Strain/Indicator: TA98, Metabolic Activation: RAT, LIVER, S-9, AROCLOR 1254 (30%), Method: PREINCUBATION)?
Answer: inactive; negative

Question: And the mutagenic call (Test System: AMES SALMONELLA TYPHIMURIUM, Strain/Indicator: TA100, Metabolic Activation: HAMSTER, LIVER, S-9, AROCLOR 1254 (30%), Method: PREINCUBATION)?
Answer: active; positive

Question: What about the mutagenic call [3] of the same compound?
Answer: active; positive

Question: And the mutagenic call (Test System: AMES SALMONELLA TYPHIMURIUM, Strain/Indicator: TA100, Metabolic Activation: RAT, LIVER, S-9, AROCLOR 1254 (30%), Method: PREINCUBATION)?
Answer: active; positive

Question: And the mutagenic call (Test System: CHINESE HAMSTER OVARY, Strain/Indicator: CHO-K1-BH4 (HGPRT)/6-THIOGUANINE, Metabolic Activation: NONE)?
Answer: inactive; negative

Question: What about the mutagenic call (Test System: CHINESE HAMSTER OVARY, Strain/Indicator: CHO-K1-BH4 (HGPRT)/6-THIOGUANINE, Metabolic Activation: S-9) of the same compound?
Answer: inactive; negative

Question: What about the mutagenic call (Test System: E. COLI, Strain/Indicator: WP2 UVRA, Metabolic Activation: HAMSTER, LIVER, S-9, AROCLOR 1254, Method: STANDARD PLATE) of the same compound?
Answer: inactive; negative

Question: What about the mutagenic call (Test System: E. COLI, Strain/Indicator: WP2 UVRA, Metabolic Activation: HAMSTER, LIVER, S-9, Method: STANDARD PLATE) of the same compound?
Answer: inactive; negative

Question: What about the mutagenic call (Test System: E. COLI, Strain/Indicator: WP2 UVRA, Metabolic Activation: MOUSE, LIVER, S-9, AROCLOR 1254, Method: STANDARD PLATE) of the same compound?
Answer: inactive; negative

Question: And the mutagenic call (Test System: E. COLI, Strain/Indicator: WP2 UVRA, Metabolic Activation: MOUSE, LIVER, S-9, Method: STANDARD PLATE)?
Answer: inactive; negative

Question: And the mutagenic call (Test System: E. COLI, Strain/Indicator: WP2 UVRA, Metabolic Activation: NONE, Method: STANDARD PLATE)?
Answer: inactive; negative

Question: What about the mutagenic call (Test System: E. COLI, Strain/Indicator: WP2 UVRA, Metabolic Activation: RAT, LIVER, S-9, AROCLOR 1254, Method: STANDARD PLATE) of the same compound?
Answer: inactive; negative

Question: And the mutagenic call (Test System: E. COLI, Strain/Indicator: WP2 UVRA, Metabolic Activation: RAT, LIVER, S-9, Method: STANDARD PLATE)?
Answer: inactive; negative

Question: And the mutagenic call (Test System: MOUSE LYMPHOMA, Strain/Indicator: L5178Y (TK+/TK-), Metabolic Activation: NONE, Method: SUSPENSION/PLATE)?
Answer: active; positive

Question: And the mutagenic call (Test System: MOUSE LYMPHOMA, Strain/Indicator: L5178Y (TK+/TK-), Metabolic Activation: RAT, LIVER, S-9, AROCLOR 1254, Method: SUSPENSION/PLATE)?
Answer: active; positive

Question: For `CCCCCCCC/C=C\CCCCCCCCN` (tested in a mixture with another compound), which mutagenic call [1] is on record?
Answer: inactive; negative

Question: And the mutagenic call (Test System: AMES SALMONELLA TYPHIMURIUM, Strain/Indicator: TA98, Metabolic Activation: RAT, LIVER, S-9, AROCLOR 1254, Method: STANDARD PLATE)?
Answer: active; positive

Question: And the mutagenic call [4]?
Answer: inactive; negative

Question: What about the mutagenic call [5] of the same compound?
Answer: inactive; negative

Question: What about the mutagenic call [6] of the same compound?
Answer: inactive; negative

Question: And the mutagenic call [7]?
Answer: inactive; negative

Question: And the mutagenic call (Test System: AMES SALMONELLA TYPHIMURIUM, Strain/Indicator: TA1537, Metabolic Activation: NONE, Method: STANDARD PLATE)?
Answer: inactive; negative

Question: What about the mutagenic call (Test System: AMES SALMONELLA TYPHIMURIUM, Strain/Indicator: TA1537, Metabolic Activation: RAT, LIVER, S-9, AROCLOR 1254, Method: STANDARD PLATE) of the same compound?
Answer: inactive; negative

Question: And the mutagenic call (Test System: AMES SALMONELLA TYPHIMURIUM, Strain/Indicator: TA1538, Metabolic Activation: NONE, Method: STANDARD PLATE)?
Answer: inactive; negative

Question: What about the mutagenic call (Test System: AMES SALMONELLA TYPHIMURIUM, Strain/Indicator: TA1538, Metabolic Activation: RAT, LIVER, S-9, AROCLOR 1254, Method: STANDARD PLATE) of the same compound?
Answer: active; positive

Question: Which mutagenic call (Test System: Chinese Hamster ovary (CHO) cells, Metabolic Activation: None, Method: HGPRT/6-Thioguanine) does the source give for `C=C(CC(=O)OCC)C(=O)O` here?
Answer: inactive; negative

Question: How did the mutagenic call [2] turn out when `[Cl-].[Cl-].[NH2-].[NH2-].[NH2-].[NH2-].[Pt+2]` was run?
Answer: inactive; negative

Question: And the mutagenic call (Test System: AMES SALMONELLA TYPHIMURIUM, Strain/Indicator: TA98, Metabolic Activation: RAT, LIVER, S-9, AROCLOR 1254, Method: PREINCUBATION)?
Answer: inactive; negative

Question: What about the mutagenic call [3] of the same compound?
Answer: inactive; negative

Question: What about the mutagenic call (Test System: AMES SALMONELLA TYPHIMURIUM, Strain/Indicator: TA100, Metabolic Activation: RAT, LIVER, S-9, AROCLOR 1254, Method: PREINCUBATION) of the same compound?
Answer: inactive; negative

Question: How did the mutagenic call [4] turn out when `CC1(C)C2CC3OC3(C)C1C2` (stereo unspecified) was run?
Answer: inactive; negative

Question: And the mutagenic call [5]?
Answer: inactive; negative

Question: What about the mutagenic call [6] of the same compound?
Answer: inactive; negative

Question: And the mutagenic call [7]?
Answer: inactive; negative

Question: What about the mutagenic call (Test System: UDS RAT HEPATOCYTES, Strain/Indicator: THY INCORP, Metabolic Activation: NONE) of the same compound?
Answer: inactive; negative

Question: How did the mutagenic call [4] turn out when `O=P1(Oc2ccccc2)OCc2ccccc2O1` (stereo unspecified) was run?
Answer: active; positive

Question: And the mutagenic call (Test System: AMES SALMONELLA TYPHIMURIUM, Strain/Indicator: TA100, Metabolic Activation: RAT, LIVER, MICROSOMES, Method: STANDARD PLATE)?
Answer: active; positive

Question: How did the mutagenic call (Test System: AMES SALMONELLA TYPHIMURIUM, Strain/Indicator: TA98, Metabolic Activation: RAT LIVER S-9, DELOR 103, Method: STANDARD PLATE) turn out when `CC(=O)OC[C@]12C[C@H](OC(=O)CC(C)C)C(C)=C[C@H]1O[C@@H]1[C@H](O)[C@@H](OC(C)=O)[C@@]2(C)[C@]12CO2` was run?
Answer: inactive; negative

Question: And the mutagenic call (Test System: AMES SALMONELLA TYPHIMURIUM, Strain/Indicator: TA98, Metabolic Activation: RAT, LIVER, MICROSOMES, PHENOBARBITAL, Method: STANDARD PLATE)?
Answer: inactive; negative

Question: What about the mutagenic call [3] of the same compound?
Answer: inactive; negative

Question: And the mutagenic call (Test System: AMES SALMONELLA TYPHIMURIUM, Strain/Indicator: TA100, Metabolic Activation: RAT LIVER S-9, DELOR 103, Method: STANDARD PLATE)?
Answer: inactive; negative

Question: What about the mutagenic call (Test System: AMES SALMONELLA TYPHIMURIUM, Strain/Indicator: TA100, Metabolic Activation: RAT, LIVER, MICROSOMES, PHENOBARBITAL, Method: STANDARD PLATE) of the same compound?
Answer: inactive; negative

Question: And the mutagenic call (Test System: AMES SALMONELLA TYPHIMURIUM, Strain/Indicator: TA100, Metabolic Activation: RAT, LIVER, S-9, PHENOBARBITAL, Method: PREINCUBATION)?
Answer: inactive; negative

Question: And the mutagenic call (Test System: CHINESE HAMSTER, Strain/Indicator: V-79/6-THIOGUANINE, Metabolic Activation: NONE, Method: STANDARD PLATE)?
Answer: active; positive

Question: What about the mutagenic call (Test System: CHINESE HAMSTER, Strain/Indicator: V-79/6-THIOGUANINE, Metabolic Activation: S-9, Method: STANDARD PLATE) of the same compound?
Answer: active; positive
